Data from patent publication US10232043B2, “Photoactivated molecules for light-induced modulation of the activity of electrically excitable cells and methods of using the same” (UNIVERSITY OF SOUTHERN CALIFORNIA, priority 2015, dated 2019).
“Also recorded” adds a separate entry of the source.

Legend:
[1] = test system: INS, HEK293T and chromaffin cells; test: Imaging RubpyC17 in live cells (membrane integration); type: cell-based, rat, human, mouse
Procedure: Cells were imaged at 1-3 days after plating. The glass-bottomed chambers with adherent cells were washed twice with PBS and then filled with standard extracellular solution consisting of 140 mM NaCl, 2.8 mM KCl: 10 mM HEPES, 1 mM MgCl2, 2 mM CaCl2, and 10 mM glucose, pH adjusted to 7.2-7.4 and osmolarity adjusted to 290-310 mOsm. The chamber was then mounted on an Olympus IX70 inverted microscope stage for imaging, using a Cascade 512B EMCCD camera, operated by Metamorph software. Initial imaging was done with, cells in extracellular solution without RubpyC17, first under brightfield to evaluate cell health and morphology, then under widefield argon ion laser illumination at 488 nm (Coherent, Innova 90-5, Santa Clara, Calif.), to evaluate autofluorescence. Next, the extracellular solution was removed and replaced with extracellular solution containing the RubpyC17 compound (10 μM in <0.01% DMSO, final concentrations). Cell images were then acquired with illumination at 488 nm (collected with a long-pass red emission filter). For electrophysiological experiments, RubpyC17 compound was added to the extracellular solution (2-10 μM in <0.01% DMSO, final concentrations as indicated) and cells were incubated for 1.5-45 min, as indicated, then washed with extracellular solution without RubpyC17. Some chromaffin cells were also exposed continuously to 490-900 nM RubpyC17-containing extracellular solution.
Illustrated here are rat insulinoma INS cells (see FIG. 17C, top), human embryonic kidney (HEK293T) cells (see FIG. 17C, middle), and primary cultured mouse chromaffin cells (see FIG. 17C, bottom). […] All cell types preserved morphology for at least 10 minutes. […] One embodiment of the possible light-induced electron transfer is depicted in FIG. 2.

HEK293T cells = test: Voltage-clamp membrane current under light; type: cell-based, human; details: approximately −80 mV
Procedure: To examine whether light-activated RubpyC17 can directly interact and open or block endogenous ion channels, HEK293T cells were preincubated with RubpyC17, and patch-clamped in a voltage-clamp configuration. Voltage-clamp configuration allowed the cells to be clamped at a potential where most voltage-gated ion channels are closed (approximately −80 mV). […] The current-voltage relationship (see FIGS. 21C and 21D) as well as the steady-state voltage-dependent activation curves of RubpyC17-treated chromaffin cells in voltage-clamp mode before and during light illumination (see FIG. 21E).

[2] = test system: mouse adrenal chromaffin cells; test: Perforated patch clamp, light-triggered action potentials; type: cell-based
Procedure: Action potentials in chromaffin cells were monitored using perforated patch clamp electrophysiology in current-clamp mode, using an EPC10 amplifier and Pulsemaster data acquisition software (HEKA electronics). A coverslip containing mouse chromaffin cells was transferred to a recording chamber and perfused with extracellular solution. Extracellular solution consists of 140 mM NaCl, 2.8 mM KCl, 10 mM HEPES, 1 mM MgCl2, 2 mM CaCl2, 10 mM glucose, pH adjusted to 7.3, and osmolarity adjusted to 290-300 mOsm. Intracellular solution consisted of 145 mM KCl, 10 mM NaCl, 1 mM MgCl2, and 10 mM HEPES, pH adjusted to 7.3 and osmolarity adjusted to 290-300 mOsm. Perforation solution was prepared by adding 4.5 μl of 125 mg/ml stock of amphoterecin B (Sigma) in DMSO to 1.8 mls of intracellular solution, and homogenizing for 540 s. Perforation was achieved within 3-10 min following gigaseal formation. Series resistances were in the range of 8-22 Mohm. Light stimulation in the blue spectrum originated from a xenon lamp source with an irradiance value of 0.480 mE s^−1 m^−2 through a 470/40 nm bandpass excitation filter. The duration of illumination varied and is indicated by bars on figures.
The behavior of excitable cells (cells capable of firing action potentials) treated with RubpyC17 was next investigated. Perforated patch clamp recording was performed on, mouse adrenal chromaffin cells pretreated with 450-900 nM RubpyC17 for 15-30 minutes before beginning electrophysiological recordings.

[3] = test system: whole-mount retinas from RCS rats; test: Whole-mount retina multi-electrode recording; type: cell-based, rat; details: photoreceptor-degenerate retina, 100 micromolar for 30 minutes, 480 nm
From the text: FIG. 26 illustrates data from whole-mount retinas from RCS rats. […] Each bin represents the frequency of spikes for 1 second. Before Rubpy treatment (14A), illumination at 480 nm elicited minimal change in spike frequency. […] Downward arrows mark the time of 100 ms (1st) and 1 second (2nd to fourth) light stimuli
The retina will be freshly dissected from Royal College of Surgeons (RCS) rats (9 months or older to ensure total loss of photoreceptors). The whole-mount retina will then be placed onto a multi-electrode array with the ganglion cell layer side facing the electrodes and is held down on the array using a lightly weighted porous membrane. Extracellular field potentials are recorded from 15 or 75 μm diameter electrodes using an MEA1060-Up amplifier and MC Rack software (Multi-Channel Systems). The activity of the retinal in response to illumination is monitored before and after PVN incubation. The retina is continuously perfused with oxygenated (95% O2, 5% CO2), heated (32C) Ames' Medium for baseline activity. The retina is then perfused with Ames' Medium containing PVN for 30 min to 1 hr, followed by 10 min wash with regular Ames' Medium before recording in Ames' Medium with 5-10 mM ascorbate. The retina will be illuminated by white LED light through a bandpass excitation filter (460-500 nm) with durations of 100 μs, 1 ms, 10 ms, 100 ms, […] and 30 s. […]

CCCCCCCCCCCCCCCCCc1ccnc(-c2cc(C)ccn2)c1.F[P-](F)(F)(F)(F)F.F[P-](F)(F)(F)(F)F.[Ru+2].c1ccc(-c2ccccn2)nc1.c1ccc(-c2ccccn2)nc1 [RubpyC17, [Ru(bpy)2(bpy-C17)](PF6)2]
time for which all cell types preserved morphology ([1]; 10 μM RubpyC17): at least 10 minutes
incorporation into cell membranes (plasma membrane-localized luminescence) ([1]; 10 μM in bath, INS, HEK293T, mouse chromaffin cells): rapidly and stably incorporates into mammalian cell membranes
membrane luminescence after RubpyC17 removal from the bath solution ([1]; at 10 minutes after removal): still observed
light-induced changes in membrane current (HEK293T cells): did not exhibit light-induced changes in membrane current
light effect on action potential firing ([2]; 900 nM RubpyC17 pretreatment, 5 mM ascorbate): triggered action potentials or increased the rate of action potential firing
action potential firing rate of a single cell ([2]; 2 μM for 1.5 min, ascorbate changed for ferricyanide): light-induced increase and then light-induced decrease
reversal of firing effect after light illumination terminated ([2]; chromaffin cells): slow, gradual reversal; also recorded: slowly reversed
shape of action potential waveforms under light ([2]; chromaffin cells): no change in the shape of action potential waveforms
light effect on rate of action potential firing ([2]; ferricyanide 100 μM): decreased the rate of action potential firing
effect of increasing ferricyanide on action potential firing ([2]; ferricyanide from 100 to 200 μM): further suppressed action potential firing
light-induced action potential firing / spike frequency ([3]; listed as Rubpy): spike frequency increased
light-induced action potential firing / spike frequency ([3]; listed as Rubpy-C17): respond to illumination by firing action potentials
